Measurements taken from patent US6541468B1, “Indolocarbazole derivatives useful for the treatment of neurodegenerative diseases and cancer” (Bayer Corporation, priority 1998, dated 2003).
Where two headings read alike, the source gives them in different places.

Experiments:
ERK2 activation = assay: Okadaic acid induced ERK2 phosphorylation/activation in SY5Y cells; format: cell-based, human; conditions: 1 μM okadaic acid; for IC50: Homo sapiens
Procedure: SKNSH-SY 5Y cells were plated on fibronectin-coated 6 well (30 mm^2) culture dishes (Biocoat®, Collaborative Biomedical Products, Inc.) and grown to confluence in 5 mL of 50% D-MEM/50% F-12 Nutrient Mixture (Ham) supplemented with 15% heat-inactivated bovine serum (JRH Bioscience), 0.1 mM non-essential amino acids solution, 2 mM glutamine and pen/strep/fungizone (GibcoBRL Life Technologies, Inc.). Cell culture medium was changed every 48 hours.
For drug testing, cells were routinely pretreated with inhibitors in 1 mL (30 mm2) for 60 min at concentrations of 30 nM, 100 nM, 300 nM, […]. Compound stocks were all at 10 mM in DMSO and dilutions were made in DMSO. Cells were then treated with 1 μM okadaic acid (ammonium salt; LC Laboratories, dissolved at 1 mM in DMSO) for 90 min. All experiments, including controls, contained a final concentration of between 0.5 and 1% DMSO.
Cells were detached from 30 mm^2 plates and suspended into 1 mL of ice-cold PBS by gentle trituration, transferred into microcentrifuge tubes and sedimented for 12 seconds at 14,000×g. […] Cell debris was removed by centrifugation at 14,000×g for 5 minutes at 4° C. and cell supernatants were analyzed by anti-ERK2 and anti-tau Western-blotting as described below.
[…] of total cell lysate was run on a 10% tris-glycine polyacrylamide gels (Novex, 1.5 mm×10 well) at 100 volts for 2.5 hors and Western-blotted on nitrocellulose (Novex) overnight at 23 volts or 1.5 hrs at 100V in transfer buffer [Towbin et al. Proc. Natl. Acad. Sci. USA 76, 4350-4354 (1979]) at 4° C. Blots were analyzed for ERK2 and phosphotyrosine immunoreactivity with anti-ERK1+2 (Z033; Zymed Laboratories, Inc.; 1:5,000) and anti-phosphotyrosine (4G10; Upstate Biotechnology Inc.; 1:1,000) mAbs. Blots were also analyzed for phosphorylation-sensitive Tau immuno-reactivity with mAb Tau-1 (Boehringer Mannheim; 1:5,000) and phosphorylation dependent mAb AT8 against FHF-tau (Biosource International; 1:200). Total Tau populations were detected by Tau-1 immunoblotting after treating blots for 16 hrs at 37° C. with 100 units/mL alkaline phosphatase (Gibco BRL) in 5 mL of 50 mM Tris-HCI (pH 8.5), 0.1 mM EDTA. All blots were developed using ECL (enhanced chemiluminescence) Western blotting protocol (Amersham Life Science) with horseradish peroxidase-linked sheep anti-mouse secondary antibody and analyzed on Kodak X-OMAT AR scientific imaging film. […] Changes in tau phosphorylation were assessed by normalizing densitometrically determined mAb Tau-1 immunoreactivities in cell extracts to Tau-1 reaction after dephosphorylation on the blot. […]

tau hyperphosphorylation = assay: Okadaic acid induced AD-like tau hyperphosphorylation in rat hippocampal brain slices; format: cell-based
Procedure: Adult male Long-Evans rats were subjected to CO2 anesthesia and sacrificed by decapitation. Brains were rapidly removed (<2 min) and whole hippocampus was dissected using a blunt spatula. Hippocampi were cut into […] slices using a Mcllwain tissue chopper and placed into ice cold low Ca^2+ Krebs-Bicarbonate buffer (pH 7.) of the following composition in mM: NaCl, 124; KCL, 3.33; CaCl2, 0.01; KH2PO4, 1.25; MgSO4, 1.33; nAhco3, 25.7; D-glucose, 10; HEPES, 20. The slices were separated and placed, 5-8 per tube, into 5 mL of low Ca^2+ buffer and incubated for at least 30 min at 33-34° C. with water saturated oxygenation (95% O2, 5% CO2). After 30 min the solution was replaced with buffer containing a physiological level of Ca^2+ (1.3 mM) and incubated for an additional 30 min.
After a total equilibration period of at least 1 hr, the slices were pretreated with vehicle or inhibitor at concentrations ranging from 30 nM to 10 μM for 1 hr, and then exposed to either vehicle or okadaic acid fora 90 min. After treatment, the buffer was removed and the slices were sonicated for 10-20 see in 500 μl of homogenization buffer (100 mM KH2PO4, pH 6.5, 2 mM EGTA, 2 mM EDTA, 1 μM okadaic acid and the following protease inhibitors: aprotinin (10 μg/ml); leupeptin (10 μM); chymostatin (40 μM); PMSF (100 μM) and pepstatin (6 μg/ml).
Following sonication, the samples were centrifuged 16,000×g for 30 min and the supernatants were removed. After boiling of the supernatants for 5 mn at 100° C. the concentration of protein was determined by the BCA assay (Pierce) using BSA as standard and samples were normalized to equal protein concentration.
Aliquots of the heat stable supernatants were separated on 10% SDS-PAGE and Western-blotted with phosphorylation-sensitive tau mAb Tau-1 and PHF-tau mAb AT8 as described for SY5Y studies. Blots were developed by an ECL kit (Amersham Life Science). AT8 immunoreactivity was quantitated on Kodak X0OMAT AR film using a Biorad imaging densitometer GS 670, the strongest signals not exceeding an O.D. of 12.

[1] = SY5Y, means of triplicate determinations, read-out: Inhibition in SY5Y cells of ERK2 activation IC50
[2] = adult rat hippocampal slices, means of triplicate determinations, read-out: Inhibition of tau hyperphos. in brain slices IC50

Compound `CNC(=O)[C@]1(O)CC2CC1n1c3ccccc3c3c4c(c5c6ccccc6n2c5c31)C(=O)NC4=O` (stereo partly drawn) [CII, 9,12-Methano-1H-diindolo[1,2,3-fg:3′,2′,1′-kl]pyrrolo[3,4-I][1,6] benzodiazocine-10-carboxamide, 2,3,9,10,11,12-hexahydro-10-hydroxy-N-methyl-1,3-dioxo-(9α,10β,12α)] has an IC50 (ERK2 activation; [1]) of 570 nM, an IC50 (tau hyperphosphorylation; adult rat hippocampal brain slices, FIG. 5, read-out: IC50 for prevention of tau hyperphosphorylation in brain slices) of 100 nM and an IC50 (tau hyperphosphorylation; [2]) of 180 nM.

With `COC(=O)[C@@]1(O)C[C@H]2C[C@@H]1n1c3ccccc3c3c4c(c5c6ccccc6n2c5c31)C(=O)NC4=O` (relative stereo) [CIII, 9,12-Methano-1H-diindolo[1,2,3-fg:3′,2′,1′-kl]pyrrolo[3,4-I][1,6] benzodiazocine-10-carboxylic acid, 2,3,9,10,11,12-hexahydro-10-hydroxy-1,3-dioxomethyl ester, (9α,10β,12α)] the IC50 (ERK2 activation; [1]) was 5700 nM, the IC50 (ERK2 activation; SY5Y cells, read-out: IC50 for prevention of okadaic acid induced ERK2 phosphorylation/activation (FIG. 4)) was ~1000 nM and the “Concentration at which prevention of ERK2 phosphorylation/activation is complete” value (ERK2 activation; SY5Y cells) was 10 µM. The IC50 (tau hyperphosphorylation; [2]) was 900 nM.
